± gives the expanded uncertainty stated by the source.
Assay: cn = amount concentration of the nth substance listed, in mol/dm3
Settings: 101 kPa, Liquid

OC[C@@H](O)[C@H](O)[C@@H](O)CO [xylitol] + O
Settings | mass density, 293.15 K [kg/m3] | mass density, 303.15 K [kg/m3] | mass density, 313.15 K [kg/m3] | mass density, 323.15 K [kg/m3] | viscosity, 293.15 K [mPa·s] | viscosity, 303.15 K [mPa·s] | viscosity, 313.15 K [mPa·s] | viscosity, 323.15 K [mPa·s]
c1 = 0.1 | 1003.31 ± 1.3 | 1000.96 ± 1.3 | 997.16 ± 1.3 | 992.72 ± 1.4 | 1.068 ± 0.026 | 0.858 ± 0.022 | 0.685 ± 0.018 | 0.5687 ± 0.015
c1 = 0.2 | 1008.5 ± 1.4 | 1005.78 ± 1.4 | 1002.18 ± 1.3 | 997.77 ± 1.3 | 1.089 ± 0.027 | 0.8774 ± 0.022 | 0.7057 ± 0.018 | 0.5916 ± 0.016
c1 = 0.3 | 1013.42 ± 1.5 | 1010.64 ± 1.5 | 1006.99 ± 1.4 | 1002.55 ± 1.3 | 1.128 ± 0.027 | 0.9121 ± 0.023 | 0.7305 ± 0.019 | 0.6093 ± 0.016
c1 = 0.4 | 1018.54 ± 1.6 | 1015.65 ± 1.6 | 1011.95 ± 1.5 | 1007.51 ± 1.4 | 1.165 ± 0.028 | 0.9452 ± 0.024 | 0.764 ± 0.02 | 0.6384 ± 0.017
c1 = 0.5 | 1023.6 ± 1.7 | 1020.49 ± 1.6 | 1016.87 ± 1.6 | 1012.42 ± 1.5 | 1.207 ± 0.029 | 0.9829 ± 0.024 | 0.7869 ± 0.02 | 0.6596 ± 0.017
c1 = 0.6 | 1028.66 ± 1.8 | 1025.38 ± 1.7 | 1021.78 ± 1.7 | 1017.34 ± 1.6 | 1.25 ± 0.03 | 1.021 ± 0.025 | 0.825 ± 0.021 | 0.6779 ± 0.018
c1 = 0.7 | 1033.72 ± 1.8 | 1030.28 ± 1.8 | 1026.7 ± 1.7 | 1022.25 ± 1.7 | 1.313 ± 0.031 | 1.079 ± 0.026 | 0.8476 ± 0.021 | 0.7063 ± 0.018
c1 = 0.8 | 1038.78 ± 1.9 | 1035.17 ± 1.9 | 1031.62 ± 1.8 | 1027.17 ± 1.8 | 1.362 ± 0.032 | 1.123 ± 0.027 | 0.8825 ± 0.022 | 0.7344 ± 0.019
c1 = 0.9 | 1043.84 ± 2 | 1040.06 ± 2 | 1036.54 ± 1.9 | 1032.09 ± 1.8 | 1.423 ± 0.034 | 1.178 ± 0.029 | 0.923 ± 0.023 | 0.7618 ± 0.02
c1 = 1 | 1048.9 ± 2.1 | 1044.95 ± 2 | 1041.45 ± 2 | 1037 ± 2 | 1.473 ± 0.035 | 1.223 ± 0.029 | 0.9632 ± 0.024 | 0.7896 ± 0.02

OC[C@@H](O)[C@@H](O)CO [meso-1,2,3,4-butanetetrol] + O
Settings | mass density, 293.15 K [kg/m3] | mass density, 303.15 K [kg/m3] | mass density, 313.15 K [kg/m3] | mass density, 323.15 K [kg/m3] | viscosity, 293.15 K [mPa·s] | viscosity, 303.15 K [mPa·s] | viscosity, 313.15 K [mPa·s] | viscosity, 323.15 K [mPa·s]
c1 = 0.1 | 1002.06 ± 1.3 | 999.34 ± 1.3 | 995.83 ± 1.4 | 991.64 ± 1.4 | 1.047 ± 0.026 | 0.8541 ± 0.022 | 0.6807 ± 0.018 | 0.5663 ± 0.015
c1 = 0.2 | 1005.36 ± 1.4 | 1002.74 ± 1.3 | 999.19 ± 1.3 | 994.96 ± 1.4 | 1.065 ± 0.026 | 0.8706 ± 0.022 | 0.7005 ± 0.018 | 0.5849 ± 0.016
c1 = 0.3 | 1009.37 ± 1.4 | 1006.74 ± 1.4 | 1003.09 ± 1.3 | 998.81 ± 1.3 | 1.088 ± 0.027 | 0.8913 ± 0.022 | 0.721 ± 0.019 | 0.5986 ± 0.016
c1 = 0.4 | 1012.65 ± 1.5 | 1009.58 ± 1.4 | 1006.3 ± 1.4 | 1001.94 ± 1.3 | 1.11 ± 0.027 | 0.911 ± 0.023 | 0.743 ± 0.019 | 0.6171 ± 0.016
c1 = 0.5 | 1016.16 ± 1.6 | 1013.33 ± 1.5 | 1009.63 ± 1.4 | 1005.23 ± 1.4 | 1.139 ± 0.028 | 0.9366 ± 0.023 | 0.7611 ± 0.02 | 0.6351 ± 0.017
c1 = 0.6 | 1019.38 ± 1.6 | 1016.67 ± 1.6 | 1012.43 ± 1.5 | 1008.41 ± 1.4 | 1.169 ± 0.028 | 0.9634 ± 0.024 | 0.7827 ± 0.02 | 0.652 ± 0.017
c1 = 0.7 | 1023.78 ± 1.7 | 1020.8 ± 1.6 | 1015.82 ± 1.6 | 1012.27 ± 1.5 | 1.213 ± 0.029 | 1.002 ± 0.025 | 0.8067 ± 0.021 | 0.6734 ± 0.018
c1 = 0.8 | 1026.82 ± 1.7 | 1024.2 ± 1.7 | 1019.15 ± 1.6 | 1015.63 ± 1.6 | 1.257 ± 0.03 | 1.045 ± 0.026 | 0.8339 ± 0.021 | 0.6909 ± 0.018
c1 = 0.9 | 1031.9 ± 1.8 | 1027.8 ± 1.8 | 1023.23 ± 1.7 | 1019.38 ± 1.6 | 1.306 ± 0.031 | 1.087 ± 0.027 | 0.861 ± 0.022 | 0.7057 ± 0.018
c1 = 1 | 1034.32 ± 1.9 | 1031.18 ± 1.8 | 1027.24 ± 1.8 | 1022.64 ± 1.7 | 1.338 ± 0.032 | 1.137 ± 0.028 | 0.8965 ± 0.023 | 0.7251 ± 0.019

— the NIST ThermoML archive (doi:10.1021/je9010486)
